# Patent US20020150582A1, “Method of treating or inhibiting cellular injury or cell death” (priority 2001, published 2002)
# Marks after values point to notes of the source that are not given here.
# Columns and labels:
# [1] = system: open chest rats in the absence of myocardial ischemia; test: Hemodynamic parameters in open chest rats in the absence of myocardial ischemia (first test procedure); format: in vivo, rat; conditions: for +dP/dt / Heart Rate / Mean BP / LVPdev: percent change from pre-drug baseline 15 minutes after drug administration
# Experimental: Male Sprague-Dawley rats weighing 505±5 g were anesthetized with sodium pentobarbital (50 mg/kg I.P.). An endotracheal tube was secured in place and connected to a small-animal respirator (Harvard Apparatus, Model 683, South Natick, Mass.) set on 100 breaths/min, with a tidal volume of 2-3 mnL/breath. Body temperature was maintained using a heating pad with circulating warm water (K-model 100, Baxter Laboratories). A left thoracotomy was performed, the heart exposed and the pericardium removed. Left ventricular pressure was measured using a saline-filled polyethylene catheter attached to an angiocatheter (20 Gauge) inserted through the apex of the heart and connected to a P23 ID Statham/Gould pressure transducer. Arterial pressure was monitored via a saline-filled polyethylene catheter (PE 50) introduced into the left carotid artery. The right jugular vein was also cannulated with a polyethylene catheter (PE 50) for IV drug infusions and volume repletion (0.9% NaCl). Subcutaneous needles were positioned in the limbs for ECG recordings. […]
# Ca+2 current (ICa-L) = test: L-type Ca2+ current recording in isolated ventricular myocytes (patch clamp); format: cell-based, cat
# Experimental: The latter process was performed three times.
# Patch-clamp current and voltage recordings were made with the ruptured patch whole-cell configuration at 36-37° C. (14). For studies on L-type Ca^2+ currents, cells were bathed with modified Tyrode's containing (in mM): 157 TEA-Cl, 5 CaCl2, 0.5 MgCl2, and 10 HEPES. Electrode internal solution contained (in mM): 10 L-Glutamic Acid, 20 CsCl, 10 EGTA, 1 MgCl2, 1 CaCl2, 20 HEPES, and 5 ATP-Mg2; pH adjusted with CsOH. In all of the studies, electrode resistance was measured to be 2-3.5 MΩ. The reference zero potential was adjusted in the bath before forming seals. Recordings were performed with an Axon Instruments 200B amplifier (Axon Instruments, Culver City, Calif. USA) interfacing a DigiData 1200 DA/AD acquisition system. Ionic currents were evoked by depolarizing voltage step (1 sec-long) from −30 to +60 mV, in 10-mV increments, from a holding potential of −40 mV delivered at the frequency of 1 Hz. Action potentials were elicited at a frequency of 1 Hz by injection of brief depolarizing current pulses. Software used in data acquisition and analysis was pClamp v.6.04 and Origin v 5.0 (Microcal Software, Northampton, Mass.).
# [2] = system: isolated feline ventricular myocytes; conditions: 25 μM, soon after exposure
# [3] = system: Adult human kidney proximal tubular (HK-2) cells; conditions: HK-2 cells cultured for 0-20 hr; necrotic form of cell death; cited from earlier work
# TNF = test: Serum TNF (ELISA) in open chest rats undergoing myocardial ischemia; format: in vivo, rat; conditions: for serum concentration of TNF: mean ± sem
# Experimental: Male Sprague-Dawley rats weighing 505±5 g were anesthetized with sodium pentobarbital (50 mg/kg I.P.). An endotracheal tube was secured in place and connected to a small-animal respirator (Harvard Apparatus, Model 683, South Natick, Mass.) set on 100 breaths/min, with a tidal volume of 2-3 mnL/breath. Body temperature was maintained using a heating pad with circulating warm water (K-model 100, Baxter Laboratories). A left thoracotomy was performed, the heart exposed and the pericardium removed. Left ventricular pressure was measured using a saline-filled polyethylene catheter attached to an angiocatheter (20 Gauge) inserted through the apex of the heart and connected to a P23 ID Statham/Gould pressure transducer. Arterial pressure was monitored via a saline-filled polyethylene catheter (PE 50) introduced into the left carotid artery. The right jugular vein was also cannulated with a polyethylene catheter (PE 50) for IV drug infusions and volume repletion (0.9% NaCl). Subcutaneous needles were positioned in the limbs for ECG recordings.
# (§1) In the second test procedure, the main coronary artery of rats undergoing coronary occlusion was located and occluded close to its origin using a 5-0 suture passed underneath the vessel that could be tightened over a short section of PE tubing (PE 20) to initiate regional ischemia. Reperfusion was reinstated by removing the short segment of PE tubing.
# Blood samples were collected in syringes in the absence of any anticoagulant and immediately placed in Microtainer® serum separator tubes (Becton Dickinson) and centrifuged at 2000 g for 6 minutes. The serum was removed, frozen immediately, and stored at −20° C. until the analysis could be performed. The concentration of serum TNF collected at preselected time points was determined for individual rats by enzyme-linked immunosorbent assay (ELISA), utilizing the Factor-Test-X (Genzyme Inc, Cambridge, Mass., Cat #80-3905-01) according to the manufacturer's instructions. Briefly, 100 μL of serum was diluted 1:2 in 0.1% bovine serum albumin/phosphate buffered saline and added in duplicate to a 96-well microtiter plate. A standard curve was generated by plotting the concentrations of rat TNF standards versus their absorbances. […] The detection limit of this assay was 10 pg/mL. Additionally, the manufacturer has determined that this ELISA is highly specific for rat TNF.
# [4] = system: open chest rats undergoing myocardial ischemia/reperfusion; test: Survival of open chest rats undergoing myocardial ischemia/reperfusion (second test procedure); format: in vivo, rat; conditions: for percent survival: 3 mg/kg iv
# [5] = system: open chest rats undergoing myocardial ischemia/reperfusion; test: Determination of infarct size (TTC staining); format: in vivo, rat; conditions: 3 mg/kg i.v.
# Experimental: as §1
# The heart was removed and sliced in five to six coronal sections, which were immersed in 1% triphenyltetrazolium chloride (TTC) for 10-15 minutes. The heart sections were removed, blotted dry and traced onto acetate sheets. The areas of infarction were clearly demarcated by a pale appearance in the ischemic zone, and a brick red color of non-infarcted myocardium. The areas of all sections were determined by planimetric methods and infarct area was expressed as a percentage of the left ventricle.
# [6] = 1.0 mg/kg iv (second dose, after 0.3 mg/kg iv)
# [7] = following infusion (0.1+0.3 mg/kg)
# [8] = 0.1 mg/kg iv (first dose), mean ± sem
# [9] = 0.3 mg/kg iv (second dose, after 0.1 mg/kg iv)
molecule,measurement,setting,value
CCCCCCCCCCCCC/C=C/[C@@H](O)[C@@H](N)CO [Sphingosine],+dP/dt,[1]; 0.3 mg/kg iv (first dose),−33 ± 12%
same,Heart Rate,[1]; 0.3 mg/kg iv (first dose),−4 ± 4%
same,Mean BP,[1]; 0.3 mg/kg iv (first dose),−24 ± 12%
same,+dP/dt,[1]; [6],−32 ± 18%
same,Heart Rate,[1]; [6],−18 ± 1%
same,LVPdev,[1]; [6],−24 ± 14%
same,Mean BP,[1]; [6],−17 ± 19%
same,+dP/dt reduced from baseline,[1]; [7],33±12%
same,LVP depressed from baseline,[1]; [7],24±8%
same,block of ICa-L,Ca+2 current (ICa-L); 2.5 μM,17±7%
same,block of ICa-L,Ca+2 current (ICa-L); 25 μM,75±4%
same,"myocardial cell death (morphology, lack of viability)",[2],lead to myocardial cell death
same,"concentration inducing rapid, concentration-dependent cytotoxicity",[3],≥ 10 µM
Etanercept,serum concentration of TNF,TNF; 0 min (end of ischemia),2299 ± 357 pg/mL
same,serum concentration of TNF,TNF; 30 min reperfusion,2057 ± 349 pg/mL
same,serum concentration of TNF,TNF; 60 min reperfusion,1592 ± 258 pg/mL
same,serum concentration of TNF,TNF; 90 min reperfusion,1108 ± 279 pg/mL
same,serum concentration of TNF,TNF; 120 min reperfusion,721 ± 209 pg/mL
same,serum concentration of TNF,TNF; 150 min reperfusion,580 ± 193 pg/mL
same,effect on TNFα spike in concentration in response to vascular occlusion,TNF; at 0 minutes,significantly reduced
same,serum concentration of TNF,TNF; −30 min (baseline),0 ± 0 pg/mL
same,mortality resulting from myocardial ischemia/reperfusion,[4]; 3 mg/kg i.v. administered immediately before occlusion,significantly reduced mortality
same,rats dead,"[4]; 3 mg/kg i.v., t=90 minutes of reperfusion",1 out of 9
same,percent survival,[4]; 0 min (end of ischemia),100%
same,percent survival,[4]; 30 min reperfusion,100%
same,percent survival,[4]; 60 min reperfusion,100%
same,percent survival,[4]; 90 min reperfusion,89%
same,percent survival,[4]; 120 min reperfusion,89* percent
same,percent survival,[4]; 150 min reperfusion,88* percent
same,percent survival,[4]; −30 min (baseline),100%
same,"Infarct size, expressed as a percentage of the left ventricle",[5],24±3%
Sphingomyelin,+dP/dt,[1]; [8],1 ± 13%
same,Heart Rate,[1]; [8],7 ± 9%
same,LVPdev,[1]; [8],3 ± 11%
same,Mean BP,[1]; [8],−3 ± 17%
same,+dP/dt,[1]; [9],6 ± 15%
same,Heart Rate,[1]; [9],8 ± 10%
same,LVPdev,[1]; [9],4 ± 12%
same,Mean BP,[1]; [9],2 ± 2%
